This is an account of results in ChEMBL document CHEMBL1201862, “PubChem BioAssay data set” (2004).

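Briefly, cells in 96-well plates were exposed to five compound concentrations for 48 h, and endpoints were estimated by linear interpolation. GI50 = concentration required for 50% inhibition of growth.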 The source made the active and inactive calls. Rule as the data show it: active = GI50 up to about 1.1 µM and inactive = higher. Some results are limits rather than exact numbers.

Test systems include 786-0; A498; A549; CCRF-CEM; DU-145; Hs-578T; MCF7; MDA-MB-231; MDA-N; NCI-H23; NCI-H460; RXF 393; SF-295; SK-MEL-28; SK-MEL-5; SK-OV-3; SW-620; TK-10; UO-31; SNB-75.
Holding throughout (experiment): NCI-60 cell line screen, 48 h

As to `CCOC(=O)C1(C#N)C2(C#N)C(N)=NC(ON=C(C)C)(ON=C(C)C)C12C#N` (centres undefined), the GI50 in the assay on 786-0, in the assay on A498, with A549, in the assay on CCRF-CEM, in the assay with DU-145 and in the assay with Hs-578T was > 100 µM (inactive) throughout. The GI50 in the assay on MCF7 was > 100 µM (inactive); in the assay with MDA-MB-231, 62.4 µM (inactive); with MDA-N it was > 100 µM (inactive); in the assay on NCI-H23, > 100 µM (inactive); in the assay with NCI-H460 it was > 100 µM (inactive); in the assay on RXF 393, > 100 µM (inactive). Moreover, the GI50 with SF-295, with SK-MEL-28, with SK-MEL-5, with SK-OV-3, in the assay on SW-620 and in the assay with TK-10 was > 100 µM (inactive) each time. The GI50 in the assay on UO-31 was > 100 µM (inactive).
Consider `O=C1NC(=O)c2ccc([N+](=O)[O-])c3cccc1c23`, for which the GI50 was 14 µM (inactive) with 786-0; 13.2 µM (inactive) with A498; 20.8 µM (inactive) with A549; 34 µM (inactive) with DU-145; 25.2 µM (inactive) in the assay with Hs-578T; 11.2 µM (inactive) in the assay on MCF7. In addition, the GI50 in the assay with MDA-MB-231 is 17.1 µM (inactive); in the assay on MDA-N, 12.4 µM (inactive); in the assay on NCI-H23, 17.1 µM (inactive); with NCI-H460, 11.5 µM (inactive); with RXF 393 it was 15.5 µM (inactive); in the assay with SF-295, 17.6 µM (inactive). Further, the GI50 with SK-MEL-28 was 20.2 µM (inactive); with SK-MEL-5, 18.9 µM (inactive); in the assay with SK-OV-3, 23.1 µM (inactive); in the assay on SNB-75 it was 40.1 µM (inactive); in the assay with SW-620, 13 µM (inactive); in the assay with TK-10 it was 19.6 µM (inactive). In addition, the GI50 with UO-31 is 16.3 µM (inactive).
Consider `CC(=O)OC1[C@H](n2ccnc2)C[C@H]2[C@@H]3CC=C4CC(N5CCCC5)CC[C@]4(C)[C@H]3CC[C@]12C` (some centres undefined), for which the GI50 in the assay on 786-0 is 22.5 µM (inactive); with A498, 32.7 µM (inactive); in the assay with A549, 41.4 µM (inactive); in the assay on CCRF-CEM it was 25.6 µM (inactive); in the assay with DU-145 it was > 100 µM (inactive); in the assay with Hs-578T, > 100 µM (inactive). Moreover, the GI50 is 33.9 µM (inactive) in the assay with MCF7; 66.2 µM (inactive) in the assay on MDA-MB-231; 28.1 µM (inactive) with MDA-N; 60.3 µM (inactive) in the assay on NCI-H23; 6.71 µM (inactive) with NCI-H460; 11.7 µM (inactive) with RXF 393. In addition, the GI50 was 20.5 µM (inactive) in the assay with SF-295; 21.2 µM (inactive) in the assay on SK-MEL-28; 33 µM (inactive) with SK-MEL-5; > 100 µM (inactive) in the assay on SNB-75; 54.1 µM (inactive) in the assay with SW-620; 88.1 µM (inactive) with TK-10. In the assay with UO-31, the GI50 is 49.5 µM (inactive).
In the case of `O=[N+]([O-])c1c2nc3n(c2cc2c1nc1n2CCC1)CCC3`, the GI50 with 786-0, in the assay on A498, in the assay with A549, with CCRF-CEM, in the assay on DU-145 and in the assay with Hs-578T was > 100 µM (inactive) in each case. In addition, the GI50 with MCF7, in the assay with MDA-MB-231, with MDA-N, with NCI-H23, with NCI-H460 and in the assay on RXF 393 was > 100 µM (inactive) in each case. The GI50 in the assay with SF-295, in the assay on SK-MEL-28, in the assay on SK-MEL-5, in the assay with SK-OV-3, in the assay on SNB-75 and in the assay on SW-620 was > 100 µM (inactive) each time. Moreover, the GI50 with TK-10 and in the assay with UO-31 was > 100 µM (inactive) each time.
For `CCOC(=O)N/N=C(\CC)NO`, the GI50 with 786-0, in the assay with A498, in the assay on A549, in the assay with CCRF-CEM, with DU-145 and in the assay with Hs-578T was > 100 µM (inactive) each time. Besides, the GI50 in the assay on MCF7, with MDA-MB-231, in the assay with MDA-N, with NCI-H23, in the assay on NCI-H460 and in the assay on RXF 393 was > 100 µM (inactive) in each case. Besides, the GI50 with SK-MEL-28, in the assay on SK-MEL-5, with SK-OV-3, in the assay with SW-620, with TK-10 and with UO-31 was > 100 µM (inactive) throughout.
Take `CN(C)CCCCCNc1c2ccccc2nc2cccc([N+](=O)[O-])c12`: the GI50 was 0.00133 µM (active) in the assay with 786-0; 0.00258 µM (active) in the assay on A498; 0.000685 µM (active) with A549; 0.024 µM (active) in the assay on CCRF-CEM; 0.000404 µM (active) with DU-145; 0.00197 µM (active) in the assay on Hs-578T. Further, the GI50 was 0.00583 µM (active) in the assay with MCF7; 0.00032 µM (active) in the assay with MDA-MB-231; 0.000187 µM (active) with MDA-N; 0.000785 µM (active) with NCI-H23; 0.000223 µM (active) with NCI-H460; 0.0037 µM (active) in the assay on RXF 393. For the same compound, the GI50 in the assay on SF-295 is 0.00105 µM (active); in the assay on SK-MEL-28, 0.00481 µM (active); with SK-MEL-5, 0.00154 µM (active); in the assay with SK-OV-3, 0.00607 µM (active); in the assay with SNB-75, 0.00163 µM (active); in the assay on SW-620 it was 0.000877 µM (active). In the assay with TK-10, the GI50 was 0.00337 µM (active).
Regarding `COc1ccc(/C(Cl)=C(\C=O)c2ccc(OC)c(OC)c2)cc1OC`, the GI50 in the assay on 786-0 is > 100 µM (inactive); with A498, > 94.4 µM (inactive); in the assay with A549, > 100 µM (inactive); in the assay on CCRF-CEM it was > 83.9 µM (inactive); with DU-145, > 100 µM (inactive); with Hs-578T it was > 100 µM (inactive). In addition, the GI50 in the assay on MCF7 was 56.8 µM (inactive); in the assay on MDA-MB-231 it was > 100 µM (inactive); in the assay with MDA-N, > 100 µM (inactive); in the assay with NCI-H23, 76.6 µM (inactive); in the assay with NCI-H460 it was 91.4 µM (inactive); in the assay on RXF 393, 37.2 µM (inactive). Also, the GI50 with SF-295 was 30.1 µM (inactive); in the assay on SK-MEL-28 it was > 94.6 µM (inactive); in the assay on SK-MEL-5, > 81.7 µM (inactive); with SK-OV-3 it was > 100 µM (inactive); in the assay on SNB-75 it was 22.9 µM (inactive); in the assay on SW-620, > 100 µM (inactive). In addition, the GI50 in the assay on TK-10 and in the assay on UO-31 was > 100 µM (inactive) throughout.
As for `COC(=O)c1c(OC(C)=O)ccc2c1c1c(n2C)C(=O)c2ccccc2C1=O`, the GI50 with 786-0 is 25.5 µM (inactive); in the assay with A498, 13.5 µM (inactive); in the assay with A549, 20.7 µM (inactive); in the assay with DU-145, 14.6 µM (inactive); in the assay on Hs-578T it was 8.38 µM (inactive); in the assay on MCF7, 18.7 µM (inactive). Further, the GI50 was 32.8 µM (inactive) with MDA-MB-231; 19 µM (inactive) in the assay on MDA-N; 19.7 µM (inactive) in the assay on NCI-H23; 22.4 µM (inactive) in the assay on NCI-H460; 37.1 µM (inactive) in the assay on RXF 393; 21.5 µM (inactive) in the assay with SF-295. The GI50 was 31.8 µM (inactive) in the assay on SK-MEL-28; 13.9 µM (inactive) in the assay with SK-MEL-5; 12.9 µM (inactive) with SK-OV-3; 7.93 µM (inactive) in the assay with SNB-75; 31 µM (inactive) in the assay on TK-10; 21 µM (inactive) with UO-31.
Turning to `O=C1NC2CCCCC2N=C1CC(=O)c1ccc(Br)cc1` (centres undefined), the GI50 is 64.1 µM (inactive) in the assay with 786-0; > 100 µM (inactive) in the assay on A498; 6 µM (inactive) with A549; 5.2 µM (inactive) with CCRF-CEM; > 100 µM (inactive) in the assay on DU-145; 4.86 µM (inactive) with Hs-578T. In addition, the GI50 in the assay with MCF7 is 18 µM (inactive); with MDA-MB-231, 16.2 µM (inactive); in the assay with MDA-N, > 100 µM (inactive); in the assay on NCI-H23 it was > 100 µM (inactive); in the assay on NCI-H460, 3.4 µM (inactive); in the assay with RXF 393, 19.5 µM (inactive). Besides, the GI50 is 17.9 µM (inactive) with SF-295; > 100 µM (inactive) with SK-MEL-28; > 100 µM (inactive) in the assay on SK-MEL-5; 28.2 µM (inactive) in the assay on SK-OV-3; > 100 µM (inactive) in the assay with SW-620; 74.5 µM (inactive) in the assay on TK-10. In addition, the GI50 with UO-31 is 3.86 µM (inactive).
In the case of `CC1(C)[C@@H](Cn2cnc3c(Cl)nc(N)nc32)CC[C@@]1(C)CO`, the GI50 with 786-0 is > 100 µM (inactive); in the assay on A498 it was > 100 µM (inactive); in the assay on A549, > 100 µM (inactive); in the assay with CCRF-CEM it was 31.6 µM (inactive); with DU-145, > 100 µM (inactive); with Hs-578T, 19.7 µM (inactive). The GI50 in the assay on MCF7 is > 100 µM (inactive); in the assay on MDA-MB-231, 21.3 µM (inactive); with MDA-N, 32.4 µM (inactive); with RXF 393, 65.8 µM (inactive); in the assay on SF-295, > 100 µM (inactive); with SK-MEL-28 it was 43.5 µM (inactive). The GI50 in the assay on SK-MEL-5 is 18.7 µM (inactive); with SK-OV-3, > 100 µM (inactive); with SNB-75 it was > 100 µM (inactive); in the assay on SW-620, 42.4 µM (inactive); in the assay with TK-10, > 100 µM (inactive); in the assay with UO-31, 3.74 µM (inactive).
